41 compounds from patent EP2818471A1, “Nitrogen bicyclic compounds as inhibitors for Scyl1 and Grk5” (Max-Planck-Gesellschaft zur Förderung der Wissenschaften …, priority 2013, dated 2014) can be followed below.

Structures are written as SMILES.

A word on the Emax: it is the maximal effect, on the per cent scale that the assay sets.

In this assay the test system is beta-TC6 cells. Nature of the assay: Insulin HTRF assay, relative activity Ar normalized to sunitinib. Conditions: Mus musculus, normalized to positive control sunitinib (5 µM = 100%), Table 10. Format: cell-based. Put shortly:
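Relative activity Ar was scaled between 0% and 100% controls, with sunitinib at 5 µM f.c. as reference. Insulin released by beta-TC6 cells was quantified by sandwich HTRF (Eu-cryptate/XL665 antibodies, 120 min RT). Cells had been seeded 24 or 48 h, then treated 2–4 h at 37°C in induction buffer, 0.5% DMSO.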
On the technique in general: Time-resolved FRET reads energy transfer from a long-lived donor to a nearby acceptor.
Take `CS(=O)(=O)c1cccc(-c2ccc3nnc(-c4cccc(OC(F)(F)F)c4)n3c2)c1` [compound 193, 6-(3-methylsulfonylphenyl)-3-[3-(trifluoromethoxy)phenyl]-[1,2,4]triazolo[4,3-a]pyridine]: the Emax lay within 50 to 100%.
To `COc1cccc(C#Cc2ccc3nnc(-c4cccc(OC(F)(F)F)c4)n3c2)c1` [compound 194, 6-[2-(3-methoxyphenyl)ethynyl]-3-[3-(trifluoromethoxy)phenyl]-[1,2,4]triazolo[4,3-a]pyridine] belongs 20 to 50%; to `FC(F)(F)Oc1cccc(-c2nnc3ccc(-c4cccs4)cn23)c1` [compound 195, 6-(2-thienyl)-3-[3-(trifluoromethoxy)phenyl]-[1,2,4]triazolo[4,3-a]pyridine], 50 to 100%; to `FC(F)(F)Oc1cccc(-c2nnc3ccc(C#Cc4ccccc4)cn23)c1` [compound 196, 6-(2-phenylethynyl)-3-[3-(trifluoromethoxy)phenyl]-[1,2,4]triazolo[4,3-a]pyridine], 20 to 50%.
`Nc1cccc(-c2ccc3nnc(-c4cccc(Cl)c4)n3c2)c1` [compound 197, 3-[3-(3-chlorophenyl)-[1,2,4]triazolo[4,3-a]pyridin-6-yl]an iline] came in with an Emax of 50 to 100%.
On to `Clc1cccc(-c2nnc3ccc(-c4ccc5c(c4)OCO5)cn23)c1` [compound 198, 6-(1,3-benzodioxol-5-yl)-3-(3-chlorophenyl)-[1,2,4]triazolo[4,3-a]pyridine], for which the Emax fell in the range of 50 to 100%.
The compound `Clc1cccc(-c2nnc3ccc(-c4ccncc4)cn23)c1` [compound 199, 3-(3-chlorophenyl)-6-(4-pyridyl)-[1,2,4]triazolo[4,3-a]pyridine] came in with an Emax of 50 to 100%.
To `Clc1cccc(-c2nnc3ccc(-c4cccnc4)cn23)c1` [compound 200, 3-(3-chlorophenyl)-6-(3-pyridyl)-[1,2,4]triazolo[4,3-a]pyridine] belongs 50 to 100%.
The same measure for `CC(=O)Nc1ccc(-c2ccc3nnc(-c4cccc(Cl)c4)n3c2)cc1` [compound 202, N-[4-[3-(3-chlorophenyl)-[1,2,4]triazolo[4,3-a]pyridin-6-yl]phenyl]acetamide]: 20 to 50%; for `Clc1cccc(-c2nnc3ccc(-c4cncnc4)cn23)c1` [compound 203, 3-(3-chlorophenyl)-6-pyrimidin-5-yl-[1,2,4]triazolo[4,3-a]pyridine]: 20 to 50%.
The compound `Clc1cccc(-c2nnc3ccc(-c4ncccn4)cn23)c1` [compound 204, 3-(3-chlorophenyl)-6-pyrimidin-2-yl-[1,2,4]triazolo[4,3-a]pyridine] gave an Emax of 10 to 20%.
`Clc1cccc(-c2nnc3ccc(-c4cncc5ccccc45)cn23)c1` [compound 205, 4-[3-(3-chlorophenyl)-[1,2,4]triazolo[4,3-a]pyridin-6-yl]isoquinoline] returned an Emax of 50 to 100%.
On to `N#Cc1ccc(-c2ccc3nnc(-c4cccc(O)c4)n3c2)cc1` [compound 206, 4-[3-(3-hydroxyphenyl)-[1,2,4]triazolo[4,3-a]pyridin-6-yl]benzonitrile], for which the maximal effect (Emax) is 50 to 100%.
To `Oc1cccc(-c2nnc3ccc(-c4ccc(F)cc4)cn23)c1` [compound 208, 3-[6-(4-fluorophenyl)-[1,2,4]triazolo[4,3-a]pyridin-3-yl]phenol] belongs 50 to 100%.
To `Oc1cccc(-c2nnc3ccc(-c4cccc5ncccc45)cn23)c1` [compound 209, 3-[6-(5-quinolyl)-[1,2,4]triazolo[4,3-a]pyridin-3-yl]phenol] belongs 20 to 50%; to `COc1cc(-c2ccc3nnc(-c4cccc(C(F)(F)F)c4)n3c2)cc(OC)c1OC` [compound 210, 3-[3-(trifluoromethyl)phenyl]-6-(3,4,5-trimethoxyphenyl)-[1,2,4]triazolo[4,3-a]pyridine], 50 to 100%.
`CN(C)CCCNC(=O)c1ccc(-c2ccc3nnc(-c4cccc(C(F)(F)F)c4)n3c2)cc1` [compound 211, N-[3-(dimethylamino)propyl]-4-[3-[3-(trifluoromethyl)phenyl]-[1,2,4]triazolo[4,3-a]pyridin-6-yl]benzamide] had a maximum response (Emax) of 20 to 50%.
In turn, `O=C(c1ccc(-c2ccc3nnc(-c4cccc(C(F)(F)F)c4)n3c2)cc1)N1CCOCC1` [compound 212, morpholino-[4-[3-[3-(trifluoromethyl)phenyl]-[1,2,4]triazolo[4,3-a]pyridin-6-yl]phenyl]methanone] showed an Emax of 20 to 50%.
`CN(C)C(=O)c1ccc(-c2ccc3nnc(-c4cccc(C(F)(F)F)c4)n3c2)cc1` [compound 213, N,N-dimethyl-4-[3-[3-(trifluoromethyl)phenyl]-[1,2,4]triazolo[4,3-a]pyridin-6-yl]benzamide] displayed an Emax of 20 to 50%.
The compound `Nc1ccc(-c2ccc3nnc(-c4cccc(C(F)(F)F)c4)n3c2)cn1` [compound 214, 5-[3-[3-(trifluoromethyl)phenyl]-[1,2,4]triazolo[4,3-a]pyridin-6-yl]pyridin-2-amine] showed a maximal response (Emax) of 20 to 50%.
With `COc1cc(-c2nnc3ccc(-c4ccc(N5CCN(C)CC5)cc4)cn23)ccc1O` [compound 215, 2-methoxy-4-[6-[4-(4-methylpiperazin-1-yl)phenyl]-[1,2,4]triazolo[4,3-a]pyridin-3-yl]phenol], the Emax fell in the range of 20 to 50%.
Consider `COc1ccc(-c2ccc3nnc(-c4ccc(O)c(OC)c4)n3c2)cn1` [compound 216, 2-methoxy-4-[6-(6-methoxy-3-pyridyl)-[1,2,4]triazolo[4,3-a]pyridin-3-yl]phenol], for which the maximal response (Emax) lay within 50 to 100%.
To `COc1cc(-c2nnc3ccc(-c4cccc(F)c4)cn23)ccc1O` [compound 217, 4-[6-(3-fluorophenyl)-[1,2,4]triazolo[4,3-a]pyridin-3-yl]-2-methoxy-phenol] belongs 50 to 100%; to `COc1cc(-c2nnc3ccc(-c4ccccc4C)cn23)ccc1O` [compound 218, 2-methoxy-4-[6-(o-tolyl)-[1,2,4]triazolo[4,3-a]pyridin-3-yl]phenol], 50 to 100%; to `COc1cc(-c2ccc3nnc(-c4ccoc4)n3c2)cc(OC)c1OC` [compound 219, 3-(3-furyl)-6-(3,4,5-trimethoxyphenyl)-[1,2,4]triazolo[4,3-a]pyridine], 50 to 100%.
Take `COc1ccc(-c2ccc3nnc(-c4ccoc4)n3c2)cc1` [compound 220, 3-(3-furyl)-6-(4-methoxyphenyl)-[1,2,4]triazolo[4,3-a]pyridine]: the Emax lay in the range of 50 to 100%.
To `c1csc(-c2ccc3nnc(-c4ccoc4)n3c2)c1` [compound 221, 3-(3-furyl)-6-(2-thienyl)-[1,2,4]triazolo[4,3-a]pyridine] belongs 50 to 100%; to `N#Cc1cccc(-c2nnc3ccc(-c4ccccn4)cn23)c1` [compound 222, 3-[6-(2-pyridyl)-[1,2,4]triazolo[4,3-a]pyridin-3-yl]benzonitrile], 20 to 50%; to `COc1ccc(-c2ccc3nnc(-c4ccccc4C)n3c2)cc1OC` [compound 223, 6-(3,4-dimethoxyphenyl)-3-(o-tolyl)-[1,2,4]triazolo[4,3-a]pyridine], 50 to 100%.
`Cc1ccccc1-c1nnc2ccc(-c3cccc(C(=O)NCCO)c3)cn12` [compound 224, N-(2-hydroxyethyl)-3-[3-(o-tolyl)-[1,2,4]triazolo[4,3-a]pyridin-6-yl]benzamide] displayed an Emax of 10 to 20%.
The same measure for `Cc1ccccc1-c1nnc2ccc(-c3ccc(C(N)=O)cc3)cn12` [compound 225, 4-[3-(o-tolyl)-[1,2,4]triazolo[4,3-a]pyridin-6-yl]benzamide]: 20 to 50%; for `c1nc(-c2nnc3ccc(-c4ccc(N5CCOCC5)cc4)cn23)cs1` [compound 226, 4-[4-(3-thiazol-4-yl-[1,2,4]triazolo[4,3-a]pyridin-6-yl)phenyl]morpholine]: 50 to 100%; for `CN(C)c1cccc(-c2ccc3nnc(-c4cscn4)n3c2)c1` [compound 227, N,N-dimethyl-3-(3-thiazol-4-yl-[1,2,4]triazolo[4,3-a]pyridin-6-yl)aniline]: 50 to 100%.
The same measure for `Fc1ccc(-c2ccc3nnc(-c4cscn4)n3c2)cc1Cl` [compound 228, 4-[6-(3-chloro-4-fluoro-phenyl)-[1,2,4]triazolo[4,3-a]pyridin-3-yl]thiazole]: 20 to 50%; for `c1cc2cc(-c3ccc4nnc(-c5cscn5)n4c3)ccc2[nH]1` [compound 229, 4-[6-(1H-indol-5-yl)-[1,2,4]triazolo[4,3-a]pyridin-3-yl]thiazole]: 50 to 100%.
With `NC(=O)c1cccc(-c2ccc3nnc(-c4cscn4)n3c2)c1` [compound 230, 3-(3-thiazol-4-yl-[1,2,4]triazolo[4,3-a]pyridin-6-yl)benzamide], the Emax was in the range of 20 to 50%.
As for `COc1ccc(-c2ccc3nnc(-c4cscn4)n3c2)c(C)c1` [compound 231, 4-[6-(4-methoxy-2-methyl-phenyl)-[1,2,4]triazolo[4,3-a]pyridin-3-yl]thiazole], the maximal effect (Emax) lay within 50 to 100%.
In turn, `O=S1(=O)CCN(CC#Cc2ccc3nnc(-c4cscn4)n3c2)CC1` [compound 232, 4-[3-(3-thiazol-4-yl-[1,2,4]triazolo[4,3-a]pyridin-6-yl)prop-2-ynyl]-1,4-thiazinane 1,1-dioxide] displayed an Emax of 10 to 20%.
For `Clc1ccccc1-c1ccc2nnc(-c3cscn3)n2c1` [compound 233, 4-[6-(2-chlorophenyl)-[1,2,4]triazolo[4,3-a]pyridin-3-yl]thiazole], the Emax lay within 50 to 100%.
To `COc1cccc(-c2ccc3nnc(-c4cscn4)n3c2)c1` [compound 234, 4-[6-(3-methoxyphenyl)-[1,2,4]triazolo[4,3-a]pyridin-3-yl]thiazole] belongs 50 to 100%; to `COc1ccc(-c2ccc3nnc(-c4ccc(OCCCN(C)C)cc4)n3c2)cc1OC` [compound 236, 3-[4-[6-(3,4-dimethoxyphenyl)-[1,2,4]triazolo[4,3-a]pyridin-3-yl]phenoxy]-N,N-dimethyl-propan-1-amine], 50 to 100%.
